Reference: ChEMBL document CHEMBL4041531, “Design, synthesis, and biological evaluation of novel 1-oxo-1,2,3,4-tetrahydropyrazino[1,2-a]indole-3-carboxamide analogs in MCF-7 and MDA-MB-468 breast cancer cell lines” (2017)
Active and inactive are the calls of the source. The rule behind the calls is not given here.

Legend:
MCF7 [1] = test: Cytotoxicity against human MCF7 cells assessed as cell viability at 30 uM after 48 hrs by MTT assay relative to control; type: functional; settings: MCF7, 48 h, read-out: Activity
MDA-MB-468 [2] = test: Cytotoxicity against gefitinib-resistant human MDA-MB-468 cells assessed as cell viability at 30 uM after 48 hrs by MTT assay relative to control; type: functional; settings: MDA-MB-468, 48 h, read-out: Activity
MDA-MB-468 [3] = test: Cytotoxicity against gefitinib-resistant human MDA-MB-468 cells assessed as reduction in cell viability after 48 hrs by MTT assay; type: functional; settings: MDA-MB-468, 48 h
MCF7 [4] = test: Cytotoxicity against human MCF7 cells assessed as reduction in cell viability after 48 hrs by MTT assay; type: functional; settings: MCF7, 48 h
MCF7 [5] = test: Cytotoxicity against human MCF7 cells assessed as cell viability at 10 uM after 48 hrs by MTT assay relative to control; type: functional; settings: MCF7, 48 h, read-out: Activity
MDA-MB-468 [6] = test: Cytotoxicity against gefitinib-resistant human MDA-MB-468 cells assessed as cell viability at 10 uM after 48 hrs by MTT assay relative to control; type: functional; settings: MDA-MB-468, 48 h, read-out: Activity
MCF7 [7] = test: Cytotoxicity against human MCF7 cells assessed as cell viability at 1 uM after 48 hrs by MTT assay relative to control; type: functional; settings: MCF7, 48 h, read-out: Activity
MCF7 [8] = test: Cytotoxicity against human MCF7 cells assessed as cell viability at 3 uM after 48 hrs by MTT assay relative to control; type: functional; settings: MCF7, 48 h, read-out: Activity
[9] = Selectivity ratio of GI50 for human MCF7 cells to GI50 for gefitinib-resistant human MDA-MB-468 cells; type: functional
MCF7 [10] = test: Cytotoxicity against human MCF7 cells assessed as reduction in cell viability at 1 uM after 48 hrs in presence of 1 to 10 uM gefitinib by MTT assay; type: functional, cell-based
MDA-MB-468 [11] = test: Cytotoxicity against gefitinib-resistant human MDA-MB-468 cells assessed as cell viability at 10 uM after 48 hrs in presence of 1 uM gefitinib by MTT assay relative to control; type: functional
MDA-MB-468 [12] = test: Cytotoxicity against gefitinib-resistant human MDA-MB-468 cells assessed as cell viability at 3 uM after 48 hrs in presence of 1 uM gefitinib by MTT assay relative to control; type: functional
MDA-MB-468 [13] = test: Cytotoxicity against gefitinib-resistant human MDA-MB-468 cells assessed as cell viability at 1 uM after 48 hrs in presence of 1 uM gefitinib by MTT assay relative to control; type: functional; settings: MDA-MB-468, 48 h, read-out: Activity
MDA-MB-468 [14] = test: Cytotoxicity against gefitinib-resistant human MDA-MB-468 cells assessed as cell viability at 10 uM after 48 hrs in presence of 3 uM gefitinib by MTT assay relative to control; type: functional
MDA-MB-468 [15] = test: Cytotoxicity against gefitinib-resistant human MDA-MB-468 cells assessed as cell viability at 3 uM after 48 hrs in presence of 3 uM gefitinib by MTT assay relative to control; type: functional; settings: MDA-MB-468, 48 h, read-out: Activity
MDA-MB-468 [16] = test: Cytotoxicity against gefitinib-resistant human MDA-MB-468 cells assessed as cell viability at 1 uM after 48 hrs in presence of 3 uM gefitinib by MTT assay relative to control; type: functional
MDA-MB-468 [17] = test: Cytotoxicity against gefitinib-resistant human MDA-MB-468 cells assessed as cell viability at 10 uM after 48 hrs in presence of 10 uM gefitinib by MTT assay relative to control; type: functional; settings: MDA-MB-468, 48 h, read-out: Activity
MDA-MB-468 [18] = test: Cytotoxicity against gefitinib-resistant human MDA-MB-468 cells assessed as cell viability at 3 uM after 48 hrs in presence of 10 uM gefitinib by MTT assay relative to control; type: functional
MDA-MB-468 [19] = test: Cytotoxicity against gefitinib-resistant human MDA-MB-468 cells assessed as cell viability at 1 uM after 48 hrs in presence of 10 uM gefitinib by MTT assay relative to control; type: functional
MDA-MB-468 [20] = settings: Homo sapiens, at 10 µM
Description: Inhibition of EGFR in gefitinib-resistant human MDA-MB-468 cells assessed as reduction in Akt phosphorylation at 10 uM after 6 hrs by Western blot method

MDA-MB-468 [21] = settings: Homo sapiens, at 10 µM; remark: listed apart in the source
Description: Inhibition of EGFR in gefitinib-resistant human MDA-MB-468 cells assessed as reduction in Akt phosphorylation at 10 uM after 18 hrs by Western blot method

MCF7 [22] = test: Potency index, ratio of gefitinib GI50 to compound GI50 for human MCF7 cells; type: functional

| SMILES | viability at 30 µM (MCF7 [1]) [%] | viability at 30 µM (MDA-MB-468 [2]) [%] | GI50 (MDA-MB-468 [3]) [µM] | other results |
| --- | --- | --- | --- | --- |
| O=C1N[C@H](C(=O)NCCc2ccc(O)cc2)Cn2c1cc1ccccc12 | 85.5 | 63.1 | – | – |
| COc1ccc(CNC(=O)[C@@H]2Cn3c(cc4ccccc43)C(=O)N2)cc1 | 68.8 | 74.7 | – | – |
| Nc1ccc(CNC(=O)[C@@H]2Cn3c(cc4ccccc43)C(=O)N2)cc1 | 76 | 65.4 | – | – |
| O=C1N[C@H](C(=O)NCc2cccs2)Cn2c1cc1ccccc12 | 61.7 | 39.2 | – | – |
| O=C1N[C@H](C(=O)NCc2ccco2)Cn2c1cc1ccccc12 | 62.1 | 39.7 | 23.1 | – |
| CC(C)NC(=O)[C@@H]1Cn2c(cc3ccccc32)C(=O)N1 | 84.4 | 88.1 | – | – |
| O=C(NCc1ccccc1)[C@@H]1Cn2c(cc3ccccc32)C(=O)N1Cc1ccccc1 | – | – | 7.6 | GI50 (MCF7 [4]): 9.6 µM; viability at 10 µM (MCF7 [5]): 47.1%; viability at 10 µM (MDA-MB-468 [6]): 28% |
| COc1cc2ncnc(Nc3ccc(F)c(Cl)c3)c2cc1OCCCN1CCOCC1 [GEFITINIB] | 16.2 | 6.7 | 9.7 | GI50 (MCF7 [4]): 20.8 µM; viability at 10 µM (MCF7 [5]): 89.7%; viability at 10 µM (MDA-MB-468 [6]): 49.1%; viability at 1 µM (MCF7 [7]): 73.1%; viability at 3 µM (MCF7 [8]): 72.6% |
| CCCCCCNC(=O)[C@@H]1Cn2c(cc3ccccc32)C(=O)N1 | 71.2 | 61.8 | – | – |
| O=C(NCc1ccco1)[C@@H]1Cn2c(cc3ccccc32)C(=O)N1Cc1ccccc1 | – | – | 5.2 | GI50 (MCF7 [4]): 19.3 µM; viability at 10 µM (MCF7 [5]): 58.5%; viability at 10 µM (MDA-MB-468 [6]): 23.3%; RatioGI50 [9]: 3.7; Activity (MCF7 [10]): Active; Activity (MDA-MB-468 [11]): 24.3%; Activity (MDA-MB-468 [12]): 40.5%; viability at 1 µM (MDA-MB-468 [13]): 66.3%; viability at 1 µM (MCF7 [7]): 93.6%; viability at 3 µM (MCF7 [8]): 62.5%; Activity (MDA-MB-468 [14]): 19.6%; viability at 3 µM (MDA-MB-468 [15]): 34.3%; Activity (MDA-MB-468 [16]): 61%; viability at 10 µM (MDA-MB-468 [17]): 15.6%; Activity (MDA-MB-468 [18]): 23.8%; Activity (MDA-MB-468 [19]): 40.8%; inhibition (MDA-MB-468 [20]): Active; inhibition (MDA-MB-468 [21]): Active |
| O=C1N[C@H](C(=O)NCc2cccc(Cl)c2)Cn2c1cc1ccccc12 | 61.7 | 34.8 | 23.4 | – |
| Cc1ccc(CNC(=O)[C@@H]2Cn3c(cc4ccccc43)C(=O)N2Cc2ccccc2)o1 | – | – | – | viability at 10 µM (MCF7 [5]): 68.7%; viability at 10 µM (MDA-MB-468 [6]): 63.1% |
| COC(=O)[C@H]1Cn2c(cc3ccccc32)C(=O)N1 | 79.7 | 82.4 | – | – |
| O=C1N[C@H](C(=O)Nc2ccccc2)Cn2c1cc1ccccc12 | 87.3 | 74.5 | – | – |
| O=C1N[C@H](C(=O)NCc2ccc(F)cc2)Cn2c1cc1ccccc12 | 59.7 | 63.1 | – | – |
| Nc1cccc(CNC(=O)[C@@H]2Cn3c(cc4ccccc43)C(=O)N2)c1 | 70.5 | 67.7 | – | – |
| O=C1N[C@H](C(=O)NC2CCCCC2)Cn2c1cc1ccccc12 | 80.7 | 73.1 | – | – |
| O=C1N[C@@H](C(=O)NCc2ccccc2)Cn2c1cc1ccccc12 | 61.8 | 45 | 24 | – |
| COC(=O)[C@@H]1Cn2c(cc3ccccc32)C(=O)N1Cc1ccccc1 | – | – | – | viability at 10 µM (MCF7 [5]): 92.6%; viability at 10 µM (MDA-MB-468 [6]): 98.8% |

| SMILES | viability at 30 µM (MCF7 [1]) [%] | viability at 30 µM (MDA-MB-468 [2]) [%] | GI50 (MDA-MB-468 [3]) [µM] | other results |
| --- | --- | --- | --- | --- |
| Cc1ccc(CNC(=O)[C@@H]2Cn3c(cc4ccccc43)C(=O)N2)o1 | 60.2 | 43 | – | – |
| O=C1N[C@H](C(=O)O)Cn2c1cc1ccccc12 | 99.7 | 76.2 | – | – |
| C=CCN1C(=O)c2cc3ccccc3n2C[C@H]1C(=O)NCc1ccco1 | – | – | 18.5 | viability at 10 µM (MCF7 [5]): 98.2%; viability at 10 µM (MDA-MB-468 [6]): 58.4% |
| COc1cccc(CNC(=O)[C@@H]2Cn3c(cc4ccccc43)C(=O)N2)c1 | 68.6 | 70.5 | – | – |
| C=CCNC(=O)[C@@H]1Cn2c(cc3ccccc32)C(=O)N1 | 104 | 94.7 | – | – |
| CNC(=O)[C@@H]1Cn2c(cc3ccccc32)C(=O)N1 | 77.5 | 82.6 | – | – |
| CCCNC(=O)[C@@H]1Cn2c(cc3ccccc32)C(=O)N1 | 83.9 | 88 | – | – |
| O=C1N[C@H](C(=O)NCc2ccc(Cl)cc2)Cn2c1cc1ccccc12 | 66.1 | 60.3 | – | – |
| O=C1N[C@@H](C(=O)NCc2ccco2)Cn2c1cc1ccccc12 | 82.5 | 21.2 | 15.9 | – |
| CN1C(=O)c2cc3ccccc3n2C[C@H]1C(=O)NCc1ccco1 | – | – | 15 | viability at 10 µM (MCF7 [5]): 54.1%; viability at 10 µM (MDA-MB-468 [6]): 56.1% |
| O=C1N[C@H](C(=O)NCc2ccccc2)Cn2c1cc1ccccc12 | 71.4 | 48.8 | 28.9 | – |
| O=C1N[C@H](C(=O)NCc2cccc(C(F)(F)F)c2)Cn2c1cc1ccccc12 | 59.1 | 62.4 | – | – |
| O=C(NCc1cccc(Cl)c1)[C@@H]1Cn2c(cc3ccccc32)C(=O)N1Cc1ccccc1 | – | – | 9.5 | GI50 (MCF7 [4]): 8.3 µM; viability at 10 µM (MCF7 [5]): 38.2%; viability at 10 µM (MDA-MB-468 [6]): 46.7% |
| O=C(NCc1cccs1)[C@@H]1Cn2c(cc3ccccc32)C(=O)N1Cc1ccccc1 | – | – | 3.8 | GI50 (MCF7 [4]): 4.6 µM; viability at 10 µM (MCF7 [5]): 35.8%; viability at 10 µM (MDA-MB-468 [6]): 18.5%; RatioGI50 (MCF7 [22]): 4.5; inhibition (MDA-MB-468 [20]): Active; inhibition (MDA-MB-468 [21]): Active |
| O=C1N[C@H](C(=O)NCc2ccc(C(F)(F)F)cc2)Cn2c1cc1ccccc12 | 60.2 | 70.5 | – | – |
| Cc1ccc(CNC(=O)[C@@H]2Cn3c(cc4ccccc43)C(=O)N2)cc1 | 68 | 61.5 | – | – |
| Cc1cccc(CNC(=O)[C@@H]2Cn3c(cc4ccccc43)C(=O)N2)c1 | 78.1 | 66.3 | – | – |
| COC(=O)[C@@H]1Cn2c(cc3ccccc32)C(=O)N1 | 85.1 | 102 | – | – |
